Data taken from US8563738B2, “Ligands for copper-catalyzed azide-alkyne cycloaddition reactions” (The Scripps Research Institute, priority 2007, dated 2013).

Key:
Solubility of ligands = details: for solubility in common organic solvents: including DMSO
[1] = Second-order rate constants of CuAAC reaction by LC-MS of quenched aliquots; details: for relative catalytic rate (second-order specific activity): ligand:Cu 2:1, 0.1 mM Cu, 1-2 mM substrates, 4:1 DMSO:aqueous buffer, sodium ascorbate; for change in rate with pH: pH of the aqueous component raised from 7 to 8
Description: The relative effectiveness of Cu-ligand complexes was evaluated on the reaction between phenylacetylene and benzyl azide in 4:1 DMSO:aqueous buffer containing sodium ascorbate as reducing agent, which has served as the standard reaction in previous mechanistic studies (Rodionov, V. O.; et al. Angew. Chem. Int. Ed. 2005, 44, 2210-2215). Ligand:Cu ratios are used herein to describe the amounts of each component added, and designate mixtures of ligands and copper ions according to those ratios for convenience. However, it must be emphasized that the active catalysts are not necessarily composed of those same ratios of ligand and metal as are placed in the reaction vessel. The equilibria that govern the composition of these catalysts are discussed below, and their study will be the subject of a separate publication.
Absolute rates were determined under relatively dilute conditions (1-2 mM in substrates), which were required to slow the reactions enough so that aliquots could be reliably taken over a substantial fraction of the completion curve. Each aliquot was immediately quenched and the amount of product formed monitored by quantitative LC-MS against an internal standard. In this way, the clean conversion to triazole was verified in each case, information that is not available by following the disappearance of azide or alkyne by infrared spectroscopy. Plots of product concentrations vs. time fitted very well to second-order kinetics over at least 70% of the reaction (FIG. 2A). […] For this reason, comparisons were made between second-order specific activities (rate constants determined at a standard Cu concentration of 0.1 mM) for catalysts composed of 2:1 mixtures of ligands and Cu(I), in the presence of excess ascorbate relative to Cu.
Reagent stock solutions were freshly prepared before use. In a typical experiment, reactions were set up in the first column of a deep-well polypropylene microtiter plate (2.5 mL well volume). 100 μL of 30% H2O2 and 100 μL of ethanol were dispensed into all other wells.
The reactions were started by the addition of the final component (typically CuSO4 solution). Aliquots of 100 μL were taken at 1-5 minute intervals from the reaction wells with a multichannel pipetman, and transferred to the subsequent columns of wells for quenching. After the desired number of aliquots have been quenched in this fashion, the contents of the plate were transferred to a standard polystyrene 96-well plate for analysis.
LC-MS analysis was performed on an Agilent 1100 (G1946D) instrument, equipped with a 35 mm Agilent ZORBAX® 3.5μ or 1.8μ SB-C18 column. The elution solvent for the detection of 1-benzyl-4-phenyl-1,2,3-triazole was 55:45 H2O:CH3CN, with 0.5% TFA. Analysis of the other triazole products required a solvent gradient (typically from 50:50 to 25:75 H2O:CH3CN, 0.5% TFA over the course of 4-5 minutes). Detection was performed in single ion mode (SIM), which typically allowed for quantitative triazole detection down to 0.1 μM. 1-benzyl-4-phenyl-1,2,3-triazole-d7 was used as internal reference for all experiments.
Equations (2) and (3) were used to find the value of k (kobs) that gives the best fit curve to the experimental data of [P] vs. time.
FIG. 2 summarizes the rate data. Note that the rate constants obtained here are really specific activities at 0.10 mM Cu catalyst concentration. Very similar results were obtained at pH 8 in the presence of 180 mM vs. 10 mM HEPES buffer.
FIG. 2B. Conditions: 1 mM BnN3, 2 mM PhCCH, 0.1 mM CuSO4, 0.2 mM ligand, 4:1 DMSO:HEPES (180 mM), 25 mM NaAsc; pH verified with meter after ascorbate addition. The dots mark observed data points; the solid line is the best second-order fit; an initial “burst” of catalytic activity was not counted in the reported rate constants. Experimental error in rate constants upon repeat measurement is <15% (usually ca. 10%), except where noted.
FIG. 2C. […]

[2] = Ligand screening by reaction calorimetry (peak reaction power); details: high reactant concentrations, 1% Cu, 4:1 DMSO:aqueous, 65° C.
From the text: Reaction calorimetry was used to evaluate the relative merits of various ligands under practical conditions of organic synthesis, e.g., involving high concentrations of azide and alkyne reagents and low loadings of catalyst. After correction for instrumental heat transfer parameters, thermograms provide a direct real-time measure of reaction rate (power output); integration gives the overall time-vs.-completion curve. […] All such measurements were made in the same 4:1 DMSO:aqueous solvent as before, but at 65° C. rather than room temperature, in order to keep the product triazole in solution at the higher concentrations used.
Calorimetry was performed in an Omnical INSIGHT® 10-channel reaction calorimeter using 40 mL glass vials. In a typical run all the reaction components but one were introduced into the vials inside an inert atmosphere glovebox, and vials were sealed with septum caps. The last reaction component to be added was placed in a Hamilton gastight syringe. The vials and syringes were then allowed to equilibrate inside the preheated instrument (65° C.) for 30 minutes. The reaction was started in all vials by depressing all of the syringes simultaneously. Two vials out of ten were charged only with solvent to obtain readings allowing for compensation for the heat of mixing. The thermograms registered in these two channels upon addition of the last component were used to construct the baseline for the other 8 channels.
Since heat is not transferred to the instrument sensor instantaneously, the thermogram registered by the instrument is dependent on the characteristics of the instrument and reaction vessel. Correction for these extraneous factors must be applied to the recorded thermograms to obtain instrument-independent data (Rosner, T.; et al. J. Am. Chem. Soc. 2001, 123, 1848-1855; Liu, J.-S.; et al. Thermochimica Acta 1994, 236, 113-122). The appropriate dynamic correction function is built into the instrument operating software. Use of vendor supplied software produces the same result as manual correction.
By the same token, catalysts such as Cu.1 that give observable, but not very strong, calorimetry signals cannot be fully analyzed by converting thermograms to completion curves, because a significant amount of the total energy output is lost below the detection threshold of the instrument. TBTA (1) falls into this category, classified as “moderate” ligands. […] However, peak power values (i.e., maximum reaction rate) provided a reproducible relative measure of relative catalytic efficiency.
Ligands were screened under the following conditions: 250 mM benzyl azide, 454 mM phenylacetylene, 2 mM CuSO4, 4 mM ligand, 25 mM sodium ascorbate. Phenylacetylene was the last component added. Initial screening was performed with at least two independent trials for each ligand. Candidates showing promising activity were then examined with at least three independent trials to obtain reliable estimations of experimental error.

[3] = Second-order rate constants of CuAAC reaction by LC-MS of quenched aliquots; details: 4:1 DMSO:buffer, Tris buffer over a standard range of concentrations

SMILES | relative catalytic rate (second-order specific activity) [1] | relative catalytic activity by calorimetry [2] | other results
O=C([O-])Cn1c(CN(Cc2nc3ccccc3n2CC(=O)[O-])Cc2nc3ccccc3n2CC(=O)[O-])nc2ccccc21.[K+].[K+].[K+] [(BimC1A)3] | one of the least effective catalysts in the series |  | water solubility (Solubility of ligands; water): water-soluble
CCOC(=O)Cn1c(CN(Cc2nc3ccccc3n2CC(=O)OCC)Cc2nc3ccccc3n2CC(=O)OCC)nc2ccccc21 [(BimC1E)3, Triethyl 2,2′,2″-(2,2′,2″-nitrilotris(methylene)tris(1H-benzimidazole-2,1-diyl)) triethanoate] | performing as well as the parent structure (BimH)3 |  | 
CC(C)(C)OC(=O)Cn1c(CN(Cc2nc3ccccc3n2CC(=O)OC(C)(C)C)Cc2nc3ccccc3n2CC(=O)OC(C)(C)C)nc2ccccc21 [(BimC1E′)3] | performing as well as the parent structure (BimH)3 |  | 
Cn1c(CN(Cc2nc3ccccc3n2C)Cc2nc3ccccc3n2C)nc2ccccc21 [(BimC1H)3] | performing as well as the parent structure (BimH)3 |  | solubility in common organic solvents (Solubility of ligands): unusually low solubility
O=C([O-])CCCn1c(CN(Cc2nc3ccccc3n2CCCC(=O)[O-])Cc2nc3ccccc3n2CCCC(=O)[O-])nc2ccccc21.[K+].[K+].[K+] [(BimC3A)3] | noticeably better catalyst performance | best in the class | 
O=C([O-])CCCCn1c(CN(Cc2nc3ccccc3n2CCCCC(=O)[O-])Cc2nc3ccccc3n2CCCCC(=O)[O-])nc2ccccc21.[K+].[K+].[K+] [(BimC4A)3, Potassium 5,5′,5″-(2,2′,2″-nitrilotris(methylene)tris(1H-benzimidazole-2,1-diyl))tripentanoate] | noticeably better catalyst performance | best in the class | relative catalytic rate (second-order specific activity) ([1]; listed as (BimC4A)): strong rate acceleration through a wide pH range
CCOC(=O)CCCCn1c(CN(Cc2nc3ccccc3n2CCCCC(=O)OCC)Cc2nc3ccccc3n2CCCCC(=O)OCC)nc2ccccc21 [(BimC4E)3, Triethyl 5,5′,5″-(2,2′,2″-nitrilotris(methylene)tris(1H-benzimidazole-2,1-diyl))tripentanoate] | just as active as its hydrolyzed (carboxylate) analog |  | 
O=C([O-])CCCCCn1c(CN(Cc2nc3ccccc3n2CCCCCC(=O)[O-])Cc2nc3ccccc3n2CCCCCC(=O)[O-])nc2ccccc21.[K+].[K+].[K+] [(BimC5A)3] | noticeably better catalyst performance | best in the class | 
c1ccc2[nH]c(CN(Cc3nc4ccccc4[nH]3)Cc3nc4ccccc4[nH]3)nc2c1 [(BimH)3, Tris-(2-benzimidazolylmethyl)amine, reference compound] |  |  | effect of Tris buffer on rate [3]: slowed significantly; change in rate with pH [1]: more sensitive
O=S(=O)(O)c1ccc2[nH]c(CN(Cc3nc4cc(S(=O)(=O)O)ccc4[nH]3)Cc3nc4cc(S(=O)(=O)O)ccc4[nH]3)nc2c1 [(BimH/S)3, reference compound] | strong rate acceleration through a wide pH range |  | 
c1ccc2[nH]c(CN(Cc3nc4ccccc4s3)Cc3nc4ccccc4s3)nc2c1 [(Bth)2(BimH), N-((1H-benzimidazol-2-yl)methyl)-1-(benzothiazol-2-yl)-N-(benzothiazol-2-ylmethyl)methanamine] | best ligand in the series | largely inactive | effect of HEPES buffer on rate ([1]; 180 mM HEPES): faster turnover; change in rate with pH [1]: very little change in rate
c1ccc2sc(CN(Cc3nc4ccccc4s3)Cc3nc4ccccc4s3)nc2c1 [(Bth)3, Tris-(2-benzothiazolylmethyl)amine] |  | largely inactive | solubility in common organic solvents (Solubility of ligands): unusually low solubility; change in rate with pH [1]: more sensitive
c1ccc2[nH]c(CN(Cc3nc4ccccc4[nH]3)Cc3nc4ccccc4s3)nc2c1 [(Bth)(BimH)2, N,N-bis((1H-benzimidazol-2-yl)methyl)-1-(benzothiazol-2-yl)methanamine] |  | largely inactive | 
c1ccc(CN(Cc2ccccn2)Cc2ccccn2)nc1 [(Py)3, tris(pyridylmethyl)amine, reference compound] | slower than those observed for the “ligand-free” case | one of the best ligands in calorimetry screening | 
c1ccc2[nH]c(CNCc3nc4ccccc4[nH]3)nc2c1 [H(BimH)2, Bis-(2-benzimidazolylmethyl)amine, reference compound] | slower than those observed for the “ligand-free” case |  | 
Cc1cc(C)c(-n2ccn(-c3c(C)cc(C)cc3C)[c]2=[Cu][Cl])c(C)c1 [Ligand S1, reference compound] |  | no detectable exothermic heat flow | 
Cn1ccn(-c2cccc(-n3ccn(C)[c]3=[Cu][Cl])n2)[c]1=[Cu][Cl] [Ligand S3, reference compound] |  | in the range of TBTA (1) | 
